From the NIST ThermoML archive (doi:10.1016/j.jct.2011.08.016)

Experiment: xn = mol fraction of the nth substance listed
Conditions: Liquid, Vibrating tube method

CCCCCCCCCC [decane] + CCCCCCCC
Conditions	mass density [kg/m3]
333.12 K, 16000 kPa, x2 = 0.2801	707.59
333.12 K, 17000 kPa, x2 = 0.0616	713.28
333.12 K, 17000 kPa, x2 = 0.2801	708.43
333.12 K, 18000 kPa, x2 = 0.0616	714.06
333.12 K, 18000 kPa, x2 = 0.2801	709.25
333.12 K, 19000 kPa, x2 = 0.0616	714.88
333.12 K, 19000 kPa, x2 = 0.2801	710.06
333.12 K, 20000 kPa, x2 = 0.0616	715.65
333.12 K, 20000 kPa, x2 = 0.2801	710.83
333.12 K, 21000 kPa, x2 = 0.0616	716.44
333.12 K, 21000 kPa, x2 = 0.2801	711.62
333.12 K, 22000 kPa, x2 = 0.0616	717.15
333.12 K, 22000 kPa, x2 = 0.2801	712.4
333.12 K, 23000 kPa, x2 = 0.0616	717.89
333.12 K, 23000 kPa, x2 = 0.2801	713.12
333.12 K, 24000 kPa, x2 = 0.0616	718.59
333.12 K, 24000 kPa, x2 = 0.2801	713.84
333.12 K, 25000 kPa, x2 = 0.0616	719.3
333.12 K, 25000 kPa, x2 = 0.2801	714.53
333.13 K, 1000 kPa, x2 = 0.5314	686.94
333.13 K, 1000 kPa, x2 = 0.9623	672.68
333.13 K, 2000 kPa, x2 = 0.5314	687.94
333.13 K, 2000 kPa, x2 = 0.9623	673.73
333.13 K, 3000 kPa, x2 = 0.5314	688.95
333.13 K, 3000 kPa, x2 = 0.9623	674.77
333.13 K, 4000 kPa, x2 = 0.5314	689.94
333.13 K, 4000 kPa, x2 = 0.9623	675.8
333.13 K, 5000 kPa, x2 = 0.5314	690.92
333.13 K, 5000 kPa, x2 = 0.9623	676.82
333.13 K, 6000 kPa, x2 = 0.5314	691.92
333.13 K, 6000 kPa, x2 = 0.9623	677.85
333.13 K, 7000 kPa, x2 = 0.5314	692.89
333.13 K, 7000 kPa, x2 = 0.9623	678.88
333.13 K, 8000 kPa, x2 = 0.5314	693.87
333.13 K, 8000 kPa, x2 = 0.9623	679.95
333.13 K, 9000 kPa, x2 = 0.5314	694.82
333.13 K, 9000 kPa, x2 = 0.9623	680.98
333.13 K, 10000 kPa, x2 = 0.5314	695.75
333.13 K, 10000 kPa, x2 = 0.9623	681.98
333.13 K, 10990 kPa, x2 = 0.5314	696.68
333.13 K, 10990 kPa, x2 = 0.9623	682.99
333.13 K, 12000 kPa, x2 = 0.5314	697.6
333.13 K, 12000 kPa, x2 = 0.9623	683.98
333.13 K, 13000 kPa, x2 = 0.5314	698.5
333.13 K, 13000 kPa, x2 = 0.9623	684.93
333.13 K, 14000 kPa, x2 = 0.5314	699.4
333.13 K, 14000 kPa, x2 = 0.9623	685.89
333.13 K, 15000 kPa, x2 = 0.5314	700.28
333.13 K, 15000 kPa, x2 = 0.9623	686.87
333.13 K, 16000 kPa, x2 = 0.5314	701.15
333.13 K, 16000 kPa, x2 = 0.9623	687.76
333.13 K, 17000 kPa, x2 = 0.5314	702
333.13 K, 17000 kPa, x2 = 0.9623	688.67
333.13 K, 18000 kPa, x2 = 0.5314	702.88
333.13 K, 18000 kPa, x2 = 0.9623	689.57
333.13 K, 19000 kPa, x2 = 0.5314	703.68
333.13 K, 19000 kPa, x2 = 0.9623	690.49
333.13 K, 20000 kPa, x2 = 0.5314	704.48
333.13 K, 20000 kPa, x2 = 0.9623	691.35
333.13 K, 21000 kPa, x2 = 0.5314	705.27
333.13 K, 21000 kPa, x2 = 0.9623	692.18
333.13 K, 22000 kPa, x2 = 0.5314	706.05
333.13 K, 22000 kPa, x2 = 0.9623	693
333.13 K, 23000 kPa, x2 = 0.5314	706.81
333.13 K, 23000 kPa, x2 = 0.9623	693.78
333.13 K, 24000 kPa, x2 = 0.5314	707.53
333.13 K, 24000 kPa, x2 = 0.9623	694.55
333.13 K, 25000 kPa, x2 = 0.5314	708.26
333.13 K, 25000 kPa, x2 = 0.9623	695.28
333.14 K, 1000 kPa, x2 = 0.7736	679.32
333.14 K, 2000 kPa, x2 = 0.7736	680.38
333.14 K, 3000 kPa, x2 = 0.7736	681.42
333.14 K, 4000 kPa, x2 = 0.7736	682.44
333.14 K, 5000 kPa, x2 = 0.7736	683.46
333.14 K, 6000 kPa, x2 = 0.7736	684.5
333.14 K, 7000 kPa, x2 = 0.7736	685.49
333.14 K, 8000 kPa, x2 = 0.7736	686.5
333.14 K, 9000 kPa, x2 = 0.7736	687.47
333.14 K, 10000 kPa, x2 = 0.7736	688.42
333.14 K, 10990 kPa, x2 = 0.7736	689.42
333.14 K, 12000 kPa, x2 = 0.7736	690.37
333.14 K, 13000 kPa, x2 = 0.7736	691.27
333.14 K, 14000 kPa, x2 = 0.7736	692.21
333.14 K, 15000 kPa, x2 = 0.7736	693.1
333.14 K, 16000 kPa, x2 = 0.7736	694.02
333.14 K, 17000 kPa, x2 = 0.7736	694.9
333.14 K, 18000 kPa, x2 = 0.7736	695.77
333.14 K, 19000 kPa, x2 = 0.7736	696.62
333.14 K, 20000 kPa, x2 = 0.7736	697.46
333.14 K, 21000 kPa, x2 = 0.7736	698.28
333.14 K, 22000 kPa, x2 = 0.7736	699.09
333.14 K, 23000 kPa, x2 = 0.7736	699.86
333.14 K, 24000 kPa, x2 = 0.7736	700.61
333.14 K, 25000 kPa, x2 = 0.7736	701.34
